Reference: article PMC12679472, “The structural requirements of 3,5-substituted oxindoles that determine selective AMPK or GSK3β inhibition” (RSC Medicinal Chemistry, 2025)
Where two headings read alike, the source gives them in different places.

Columns and labels:
[1] = target: purified recombinant human AMPK (α1β1γ1) (Homo sapiens, UniProt P54619+Q13131+Q9Y478); experiment: radiometric [33P]-ATP kinase activity assay, AMPK; assay type: biochemical; conditions: for IC50: 10 μM [33P]-ATP; for EC50: concentration axis Log(M)
Sequence of purified recombinant human AMPK (α1β1γ1) (Homo sapiens, UniProt P54619+Q13131+Q9Y478) (Q13131 whole entry): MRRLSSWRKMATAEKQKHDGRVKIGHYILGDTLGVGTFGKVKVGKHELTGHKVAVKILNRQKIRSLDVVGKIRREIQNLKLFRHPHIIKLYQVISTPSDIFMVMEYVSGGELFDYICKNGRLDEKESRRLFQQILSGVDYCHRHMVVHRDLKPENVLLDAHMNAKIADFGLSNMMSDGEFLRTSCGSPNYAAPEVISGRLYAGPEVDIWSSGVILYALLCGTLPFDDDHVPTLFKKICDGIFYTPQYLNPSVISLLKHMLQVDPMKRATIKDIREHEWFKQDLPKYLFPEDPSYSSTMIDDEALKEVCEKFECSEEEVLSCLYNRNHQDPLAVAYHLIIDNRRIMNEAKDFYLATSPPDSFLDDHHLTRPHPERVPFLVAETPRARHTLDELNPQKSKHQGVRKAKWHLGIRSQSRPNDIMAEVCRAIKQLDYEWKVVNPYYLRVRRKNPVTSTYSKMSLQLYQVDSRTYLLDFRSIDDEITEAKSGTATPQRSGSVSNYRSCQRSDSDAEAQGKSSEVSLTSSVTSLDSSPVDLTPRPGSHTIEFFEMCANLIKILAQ
Sequence of purified recombinant human AMPK (α1β1γ1) (Homo sapiens, UniProt P54619+Q13131+Q9Y478) (Q9Y478 whole entry partner): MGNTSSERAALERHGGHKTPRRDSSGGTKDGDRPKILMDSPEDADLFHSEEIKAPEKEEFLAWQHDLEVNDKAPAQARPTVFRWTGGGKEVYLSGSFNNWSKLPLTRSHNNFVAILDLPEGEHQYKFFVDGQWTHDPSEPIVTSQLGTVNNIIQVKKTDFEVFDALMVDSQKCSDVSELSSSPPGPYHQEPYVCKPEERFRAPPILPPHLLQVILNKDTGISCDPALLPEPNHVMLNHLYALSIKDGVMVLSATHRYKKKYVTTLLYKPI
Sequence of purified recombinant human AMPK (α1β1γ1) (Homo sapiens, UniProt P54619+Q13131+Q9Y478) (P54619 whole entry partner): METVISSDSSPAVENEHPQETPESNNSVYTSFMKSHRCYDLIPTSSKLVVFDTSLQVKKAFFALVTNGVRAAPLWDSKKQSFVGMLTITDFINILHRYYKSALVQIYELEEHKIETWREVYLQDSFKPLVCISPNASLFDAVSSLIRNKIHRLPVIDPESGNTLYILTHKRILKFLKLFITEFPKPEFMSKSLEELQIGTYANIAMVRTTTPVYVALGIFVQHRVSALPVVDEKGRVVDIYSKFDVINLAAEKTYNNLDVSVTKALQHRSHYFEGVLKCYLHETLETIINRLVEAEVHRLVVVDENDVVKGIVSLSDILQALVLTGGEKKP

[2] = target: purified recombinant human AMPK (α1β1γ1) (Homo sapiens, UniProt Q13131); experiment: radiometric [33P]-ATP kinase activity assay, AMPK; assay type: biochemical; conditions: for inhibition of AMPK activity (in words): up to 10 μM; for Hill Slope: AMPK curve fit, kinase profiling report; for HillSlope (GraphPad Prism best-fit, AMPK) / LogEC50 (GraphPad Prism best-fit, AMPK): sigmoidal dose-response variable slope; for LogEC50 (GraphPad Prism best-fit, AMPK): concentration axis Log(M); for % Activity (enzyme activity relative to DMSO controls): AMPK
Sequence of purified recombinant human AMPK (α1β1γ1) (Homo sapiens, UniProt Q13131) (Q13131 whole entry): as the sequence (Q13131 whole entry) above
Sequence of purified recombinant human AMPK (α1β1γ1) (Homo sapiens, UniProt Q13131) (Q9Y478 whole entry partner): as the sequence (Q9Y478 whole entry partner) above
Sequence of purified recombinant human AMPK (α1β1γ1) (Homo sapiens, UniProt Q13131) (P54619 whole entry partner): as the sequence (P54619 whole entry partner) above

[3] = target: purified recombinant human GSK3β (Homo sapiens, UniProt P49841); experiment: radiometric [33P]-ATP kinase activity assay, GSK3β; conditions: for Hill Slope: GSK3β curve fit, kinase profiling report; for HillSlope (GraphPad Prism best-fit, GSK3β) / LogEC50 (GraphPad Prism best-fit, GSK3β): sigmoidal dose-response variable slope
Sequence of purified recombinant human GSK3β (P49841 whole entry): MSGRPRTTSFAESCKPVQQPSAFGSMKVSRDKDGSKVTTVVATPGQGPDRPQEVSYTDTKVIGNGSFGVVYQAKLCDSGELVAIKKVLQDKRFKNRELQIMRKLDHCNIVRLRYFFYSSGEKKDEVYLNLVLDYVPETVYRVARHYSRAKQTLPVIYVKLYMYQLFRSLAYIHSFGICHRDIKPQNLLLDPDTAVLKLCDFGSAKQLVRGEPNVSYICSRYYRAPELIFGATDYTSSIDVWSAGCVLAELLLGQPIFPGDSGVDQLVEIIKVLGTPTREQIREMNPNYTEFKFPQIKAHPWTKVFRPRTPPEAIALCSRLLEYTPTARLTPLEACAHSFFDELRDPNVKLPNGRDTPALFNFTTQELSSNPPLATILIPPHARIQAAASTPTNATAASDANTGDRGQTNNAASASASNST

AMPK = system: AMPK; design: method as in PMID 23410232; conditions: at 10 μM; cited from earlier work
GSK3β = system: GSK3β; design: method as in PMID 23410232; conditions: at 10 μM; cited from earlier work
cellular AMPK activity = conditions: cited from earlier work
[4] = 10-dose singlet, 3-fold dilutions from 10 μM, read-out: AMPK IC50

| SMILES | IC50 [1, 4] [M] | inhibition of AMPK activity (in words) ([2]; 10 μM [33P]-ATP) | IC50 [3] [µM] | Hill Slope [3] | HillSlope (GraphPad Prism best-fit, GSK3β) [3] | Hill Slope [2] | further results |
| --- | --- | --- | --- | --- | --- | --- | --- |
| N#CCCc1ccc2c(c1)C(=Cc1ccc(CN3CCOCC3)cc1)C(=O)N2 (mixture of isomers) [Compound 7, (E/Z)-5-(2-Cyanoethyl)-3-(4-(morpholinomethyl)benzylidene)oxindole] | > 1e-05 | did not demonstrate AMPK inhibition | > 10 |  |  |  |  |
| CN1CCN(Cc2ccc(C=C3C(=O)Nc4ccc(CCC#N)cc43)cc2)CC1 (mixture of isomers) [Compound 8, (E/Z)-5-(2-Cyanoethyl)-3-(4-((4-methylpiperazin-1-yl)methyl)benzylidene)oxindole] | > 1e-05 | did not demonstrate AMPK inhibition | > 10 |  |  |  |  |
| N#Cc1ccc2c(c1)C(=Cc1ccc(CN3CCOCC3)cc1)C(=O)N2 (mixture of isomers) [Compound 11, (E/Z)-5-Cyano-3-(4-(morpholinomethyl)benzylidene)oxindole] | > 1e-05 | did not demonstrate AMPK inhibition | 3.37 | -0.95 | -0.9491 |  | EC50 [3]: 3.37 µM; LogEC50 (GraphPad Prism best-fit, GSK3β) [3]: -5.472 |
| N#Cc1ccc2[nH]c(O)c(-c3ccc(CN4CCOCC4)cn3)c2c1 [AZD1080] |  |  |  |  |  |  | inhibition of AMPK kinase activity (AMPK): more than 50%; inhibition of GSK3β kinase activity (GSK3β): more than 50% |
| O=C1Nc2ccc(CCN3CCCCC3)cc2/C1=C/c1ccc(CN2CCOCC2)cc1 [Compound 9, (Z)-5-(2-(Piperidin-1-yl)ethyl)-3-(4-(morpholinomethyl)benzylidene)oxindole] | > 1e-05 |  | > 10 |  |  |  |  |
| CN1CCN(Cc2ccc(/C=C3\C(=O)Nc4ccc(CCN5CCCCC5)cc43)cc2)CC1 [Compound 10, (Z)-5-(2-(Piperidin-1-yl)ethyl)-3-(4-((4-methylpiperazin-1-yl)methyl)benzylidene)oxindole] | > 1e-05 |  | > 10 |  |  |  |  |
| c1cc(-c2cnn3cc(-c4ccc(OCCN5CCCCC5)cc4)cnc23)ccn1 [Compound C, dorsomorphin] |  |  |  |  |  |  | concentration required to inhibit cellular AMPK activity (cellular AMPK activity): > 10 µM |
| CNC(=O)c1ccccc1Oc1nc(Nc2cc(OC)c(OC)c(OC)c2)ncc1Br [SBI-0206965] |  |  |  |  |  |  | concentration required to inhibit cellular AMPK activity (cellular AMPK activity): > 10 µM |

The next lines start with results.

| IC50 [1, 4] [M] | inhibition of AMPK activity (in words) ([2]; 10 μM [33P]-ATP) | IC50 [3] [µM] | Hill Slope [3] | HillSlope (GraphPad Prism best-fit, GSK3β) [3] | Hill Slope [2] | SMILES | further results |
| --- | --- | --- | --- | --- | --- | --- | --- |
| > 1e-05 | did not demonstrate AMPK inhibition | 8.29 | -0.95 | -0.9519 |  | CN1CCN(Cc2ccc(C=C3C(=O)Nc4ccc(C#N)cc43)cc2)CC1 (mixture of isomers) [Compound 12, (E/Z)-5-Cyano-3-(4-((4-methylpiperazin-1-yl)methyl)benzylidene)oxindole] | EC50 [3]: 8.29 µM; LogEC50 (GraphPad Prism best-fit, GSK3β) [3]: -5.082 |
|  | demonstrated AMPK inhibition | 4.92 | -0.59 | -0.5892 | -0.38 | N#Cc1ccc2c(c1)/C(=C/c1cc(CN3CCOCC3)c[nH]1)C(=O)N2 [Compound 13, (Z)-5-Cyano-3-((4-(morpholinomethyl)-1H-pyrrol-2-yl)methylene)oxindole] | EC50 ([1]; sigmoidal fit, extrapolated beyond 10 μM, read-out: EC50 (GraphPad Prism best-fit, % activity against AMPK), beyond top dose): 1.87e-05 M; IC50 ([1]; supplement kinase profiling report, read-out: IC50 (M) AMPK(A1/B1/G1)): > 1e-05 M; HillSlope (GraphPad Prism best-fit, AMPK) [2]: -0.3757; LogEC50 (GraphPad Prism best-fit, AMPK), beyond top dose ([2]; sigmoidal fit, extrapolated beyond 10 μM): -4.728; EC50 [3]: 4.92 µM; LogEC50 (GraphPad Prism best-fit, GSK3β) [3]: -5.308 |
| 5.04e-06 | demonstrated AMPK inhibition | > 10 |  |  | -0.86 | N#CCCc1ccc2c(c1)/C(=C/c1cc(CN3CCOCC3)c[nH]1)C(=O)N2 [Compound 14, (Z) 5-(2-cyanoethyl)-3-((4-(morpholinomethyl)-1H-pyrrol-2-yl)methylene)oxindole] | EC50 ([1]; sigmoidal dose-response variable slope, Bottom = 0, read-out: EC50 (GraphPad Prism best-fit, % activity against AMPK)): 5.04e-06 M; HillSlope (GraphPad Prism best-fit, AMPK) [2]: -0.8552; LogEC50 (GraphPad Prism best-fit, AMPK) [2]: -5.298; inhibition of GSK3β kinase activity (in words) ([3]; up to 10 μM, 10 μM [33P]-ATP): did not show detectable GSK3β inhibition |
|  |  |  |  |  | -0.77 | Cn1cc(C2=C(c3cn(CCCSC(=N)N)c4ccccc34)C(=O)NC2=O)c2ccccc21 [RO-31-8220, reference compound] | % Activity (enzyme activity relative to DMSO controls) ([2]; Ro-31-8220 Conc. 1.02E-09 M): 91.37%; % Activity (enzyme activity relative to DMSO controls) ([2]; Ro-31-8220 Conc. 2.00E-05 M): 5.65%; % Activity (enzyme activity relative to DMSO controls) ([2]; Ro-31-8220 Conc. 2.22E-06 M): 9.47%; % Activity (enzyme activity relative to DMSO controls) ([2]; Ro-31-8220 Conc. 2.47E-07 M): 25.85%; % Activity (enzyme activity relative to DMSO controls) ([2]; Ro-31-8220 Conc. 2.74E-08 M): 71.55%; % Activity (enzyme activity relative to DMSO controls) ([2]; Ro-31-8220 Conc. 3.05E-09 M): 90.55%; % Activity (enzyme activity relative to DMSO controls) ([2]; Ro-31-8220 Conc. 6.67E-06 M): 3.95%; % Activity (enzyme activity relative to DMSO controls) ([2]; Ro-31-8220 Conc. 7.41E-07 M): 12.59%; % Activity (enzyme activity relative to DMSO controls) ([2]; Ro-31-8220 Conc. 8.23E-08 M): 51.73%; % Activity (enzyme activity relative to DMSO controls) ([2]; Ro-31-8220 Conc. 9.14E-09 M): 78.23%; IC50 ([2]; supplement kinase profiling report, 10 μM [33P]-ATP, read-out: IC50 (M) AMPK(A1/B1/G1)): 8.36e-08 M |
|  |  |  | -0.78 | -0.7769 | -0.78 | CCN(CC)CCNC(=O)c1c(C)[nH]c(/C=C2\C(=O)Nc3ccc(F)cc32)c1C [Sunitinib, sunitinib, reference compound] | HillSlope (GraphPad Prism best-fit, AMPK) [2]: -0.7785; LogEC50 (GraphPad Prism best-fit, AMPK) [2]: -7.395; concentration required to inhibit cellular AMPK activity (cellular AMPK activity): < 5 µM |
